Literature values as cited in patent publication US9469654B2, “Bicyclic oxa-lactam kinase inhibitors” (PORTOLA PHARMACEUTICALS, INC., priority 2012, dated 2016).

Assays:
[1] = test system: lymphoma cell lines and primary human lymphoma samples
[2] = test system: refractory NHL and chronic lymphocytic leukemia; details: phase II clinical trial

## COc1cc(Nc2ncc(F)c(Nc3ccc4c(n3)NC(=O)C(C)(C)O4)n2)cc(OC)c1OC [Example R406]
[1]; lymphoma cell lines
  apoptosis: resulting in apoptosis
[1]; lymphoma cell lines and primary human lymphoma samples
  effect on BCR signaling: attenuates BCR signaling
Src kinsase
  activity against Src kinase: not against
[2]
  clinical outcome: favorable results
JAK kinases
  activity against JAK kinases: active against
